In the supplement of paper PMC10307832:

Assays:
Test in all cases: relative viability (nuclei count vs DMSO), 5 days (fraction); higher = more cells survive
[1] = compound: C1COCCN1C2=NC(=NC3=C2OC4=C3C=CC=N4)C5=CC(=CC=C5)NC(=O)C6=CN=C(C=C6)N + Cc1cc(Nc2cc(N3CCN(C)CC3)nc(Sc3ccc(NC(=O)C4CC4)cc3)n2)n[nH]1 [Tozasertib] (partner 0.1 µM)
Method in brief: (§1)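 Relative viability divides the nuclei count in treated wells by that in vehicle wells. Lung cancer cell lines were seeded in 1536-well plates, dosed by pin tool the next day, and fixed and stained after 5 days in one step with final 0.05% Triton X-100, 1% formaldehyde and 1 ug/ml Hoechst. Dosing was a single drug or a fixed anchor-drug dose plus five library-drug doses (not always all listed) in √10 steps, and values are medians of duplicate plates imaged at 4×.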

Entinostat + OSI-027 = compound: Nc1ccccc1NC(=O)c1ccc(CNC(=O)OCc2cccnc2)cc1 [Entinostat] + COc1cccc2cc(-c3nc([C@H]4CC[C@H](C(=O)O)CC4)n4ncnc(N)c34)[nH]c12 [OSI-027] (partner 0.5 µM)
Method in brief: as §1

Entinostat + Alpelisib = compound: Nc1ccccc1NC(=O)c1ccc(CNC(=O)OCc2cccnc2)cc1 [Entinostat] + Cc1nc(NC(=O)N2CCC[C@H]2C(N)=O)sc1-c1ccnc(C(C)(C)C(F)(F)F)c1 [Alpelisib] (partner 2 µM)
Method in brief: as §1

Entinostat + Vorinostat = compound: Nc1ccccc1NC(=O)c1ccc(CNC(=O)OCc2cccnc2)cc1 [Entinostat] + O=C(CCCCCCC(=O)Nc1ccccc1)NO [Vorinostat] (partner 1 µM)
Method in brief: as §1

Q: Which results are given for UMC-11?
A: relative viability ([1]; first compound 0.02 µM): 0.205; relative viability ([1]; first compound 0.06325 µM): 0.188; relative viability ([1]; first compound 0.2 µM): 0.193; relative viability ([1]; first compound 0.6325 µM): 0.182; relative viability ([1]; first compound 2 µM): 0.177; relative viability (Entinostat + OSI-027; first compound 0.02 µM): 0.445; relative viability (Entinostat + OSI-027; first compound 0.06325 µM): 0.499; relative viability (Entinostat + OSI-027; first compound 0.2 µM): 0.388; relative viability (Entinostat + OSI-027; first compound 0.6325 µM): 0.207; relative viability (Entinostat + OSI-027; first compound 2 µM): 0.213; relative viability (Entinostat + Alpelisib; first compound 0.02 µM): 1.12; relative viability (Entinostat + Alpelisib; first compound 0.06325 µM): 1.01; relative viability (Entinostat + Alpelisib; first compound 0.2 µM): 0.702; relative viability (Entinostat + Alpelisib; first compound 0.6325 µM): 0.168; relative viability (Entinostat + Alpelisib; first compound 2 µM): 0.116; relative viability (Entinostat + Vorinostat; first compound 0.02 µM): 0.43; relative viability (Entinostat + Vorinostat; first compound 0.06325 µM): 0.321; relative viability (Entinostat + Vorinostat; first compound 0.2 µM): 0.242; relative viability (Entinostat + Vorinostat; first compound 0.6325 µM): 0.181; relative viability (Entinostat + Vorinostat; first compound 2 µM): 0.12
